Six molecules from patent publication US20150087004A1, “Microfabricated 3D Cell Culture System” (The Trustees of the University of Pennsylvania, priority 2012, published 2015) can be followed below.

This experiment relates to Human umbilical vein endothelial cells (HUVECs). Description: Pro-angiogenic factor screening: directed invasion and sprouting from endothelialized parent vessel in 3D cell culture device. It counts as cell-based. Conditions: for EC invasion into the matrix (single cell or collective cell invasion): factor added individually to source channel, over four days, 75 ng/mL (S1P 500 nM); for mode of cell migration / sprouting response: factor or cocktail in source channel, gradient across collagen matrix. From the text:
Examination the processes of angiogenic invasion and sprouting from an existing vessel in accordance with the disclosed subject matter will be described, with reference to FIG. 11A-D through FIG. 14A-F, for purpose of illustration and not limitation. Generally, a device in accordance with an embodiment of the disclosed subject matter can be prepared with an endothelium lining a cylindrical channel, surrounded by matrix, and exposed to a gradient of angiogenic factors emanating from a parallel source channel 150a. The device can be assembled by casting Type I collagen into a PDMS mold/gasket with two parallel needles held across the casting chamber. Upon collagen polymerization, the needles can be extracted to create hollow cylindrical channels in the collagen matrix 160. Endothelial cells (ECs) can be injected into one of the channels, allowing them to attach on the interior wall and form a confluent endothelium or “parent vessel” 150a. Flow can be maintained through both channels and media containing angiogenic factors can subsequently be added to the second channel to establish a gradient across the collagen matrix to the endothelium, as illustrated in FIG. 11B.
In a first example, the impact of various pro-angiogenic factors on directed invasion and sprouting from the parent vessel is examined. Six common factors associated with angiogenesis in the literature were selected: basic fibroblast growth factor (bFGF), hepatocyte growth factor (HGF), vascular endothelial growth factor (VEGF), monocyte chemotactic protein-1 (MCP-1), sphingosine-1-phosphate (S1P), and phorbol 12-myristate 13-acetate (PMA). After these factors were added individually to the non-endothelialized source channel, phase-contrast and confocal microscopy were used to assess the organization and development of EC invasion over four days.
In connection with the examples described herein, an exemplary device in accordance with the disclosed subject matter was fabricated from two patterned layers of poly(dimethylsiloxane) (PDMS; Sylgard 184; Dow-Corning) bonded to each other and sealed against a glass substrate (e.g., as depicted in FIG. 11A). The two PDMS layers were cast or double-cast from templates originally generated using standard photolithography of SU-8 on silicon wafers. To assemble the device, the bottom layer was first sealed to a glass coverslip. The top and bottom layers were then treated with oxygen plasma, bonded together, and cured at 110° C. overnight. Assembled devices then were treated with oxygen plasma, immersed in 0.1 mg/ml poly-L-lysine (Sigma) for 1 hr, 1% glutaraldehyde (Sigma) for 1.5 hr, washed several times with ddH2O, sterilized with UV light for 15 min, and soaked in 70% ethanol for 1 hr. To mold cylindrical channels, two 400 μm diameter acupuncture needles (Hwato) were inserted into parallel grooves at the top of the bottom layer and through the middle rectangular chamber approximately 200 μm above the glass coverslip surface. Rat tail collagen type I (2.5 mg/ml; BD Biosciences) was pipetted into the middle chamber and allowed to polymerize at 37° C. for 30 min. Excess collagen was subsequently aspirated from the fluid reservoirs feeding from the middle chamber. Devices were then covered with EGM-2 (Lonza) before the needles were extracted as described herein.
Cells were cultured and seeded in accordance with the disclosed subject matter into the device described in connection with the first example. Human umbilical vein endothelial cells (HUVECs) (Lonza) and human microvascular endothelial cells (HMVECs) (Lonza) were cultured in EGM-2 and EGM-2MV, respectively.

With `CCCCCCCCCCCCC/C=C/[C@@H](O)[C@@H](N)COP(=O)(O)O` [S1P, sphingosine-1-phosphate], the “EC invasion into the matrix (single cell or collective cell invasion)” value (“EC invasion into the matrix” for short) is given as “substantial directed invasion” and the “mode of cell migration / sprouting response” value is “chemotactic migration primarily of single cells”.

Regarding “vascular endothelial growth factor [VEGF]”, the “EC invasion into the matrix” value was “did not induce significant invasion”.

Turning to basic fibroblast growth factor [bFGF], the “EC invasion into the matrix” value was “did not induce significant invasion”.

On to `CCCCCCCCCCCCCC(=O)O[C@@H]1[C@@H](C)[C@@]2(O)[C@@H](C=C(CO)C[C@]3(O)C(=O)C(C)=C[C@@H]23)[C@@H]2C(C)(C)[C@]12OC(C)=O` [PMA, phorbol 12-myristate 13-acetate], for which the “EC invasion into the matrix” value is “substantial directed invasion” and the “mode of cell migration / sprouting response” value is “collective cell migration that manifested itself in the form of sparse, long, multi-cellular sprouts”.

In the case of monocyte chemotactic protein-1 [MCP-1], the “EC invasion into the matrix” value was “did not induce significant invasion”.

Consider hepatocyte growth factor [HGF], for which the “EC invasion into the matrix” value is recorded as “did not induce significant invasion”.
